In ChEMBL document CHEMBL1201862, “PubChem BioAssay data set” (2004):
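Five concentrations, 48 hours, 96-well plates. Abbreviation: GI50, concentration required for 50% inhibition of growth.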 Calls of active or inactive are those of the source. Rule as the data show it: active = GI50 up to about 1.1 µM and inactive = higher.

Legend:
Experiment in all cases: NCI tumour cell line growth inhibition, 48 h
HT-29 = test system: HT-29
KM12 = test system: KM12
RPMI-8226 = test system: RPMI-8226
HCC 2998 = test system: HCC 2998
HOP-62 = test system: HOP-62
UACC-257 = test system: UACC-257
HL-60 = test system: HL-60
MOLT-4 = test system: MOLT-4
SNB-19 = test system: SNB-19
K562 = test system: K562
LXFL 529 = test system: LXFL 529
UO-31 = test system: UO-31
M14 = test system: M14
DMS-273 = test system: DMS-273
M19-MEL = test system: M19-MEL
COLO 205 = test system: COLO 205
EKVX = test system: EKVX
CCRF-CEM = test system: CCRF-CEM
SR = test system: SR
NCI-H460 = test system: NCI-H460
SW-620 = test system: SW-620
UACC-62 = test system: UACC-62
OVCAR-3 = test system: OVCAR-3
SK-OV-3 = test system: SK-OV-3
NCI-H522 = test system: NCI-H522
SK-MEL-28 = test system: SK-MEL-28
SF-268 = test system: SF-268
OVCAR-8 = test system: OVCAR-8
KM-20L2 = test system: KM-20L2
HCT-15 = test system: HCT-15
DLD-1 = test system: DLD-1
SF-539 = test system: SF-539
ACHN = test system: ACHN
SNB-78 = test system: SNB-78
A549 = test system: A549
DMS-114 = test system: DMS-114
TK-10 = test system: TK-10
LOX IMVI = test system: LOX IMVI
HCT-116 = test system: HCT-116
Malme-3M = test system: Malme-3M
786-0 = test system: 786-0
SNB-75 = test system: SNB-75
NCI-H23 = test system: NCI-H23
SF-295 = test system: SF-295
SN12C = test system: SN12C
RXF 393 = test system: RXF 393
U-251 = test system: U-251
SK-MEL-5 = test system: SK-MEL-5
NCI-H226 = test system: NCI-H226
HOP-18 = test system: HOP-18
A498 = test system: A498
OVCAR-5 = test system: OVCAR-5
OVCAR-4 = test system: OVCAR-4
IGROV-1 = test system: IGROV-1
HOP-92 = test system: HOP-92
SK-MEL-2 = test system: SK-MEL-2
Hs-578T = test system: Hs-578T
BT-549 = test system: BT-549
NCI/ADR-RES = test system: NCI/ADR-RES
PC-3 = test system: PC-3
MCF7 = test system: MCF7

With COc1cc(-c2cc(O)c3ccccc3n2)cc(OC)c1OC the GI50 (HT-29) was > 75 µM (inactive), the GI50 (KM12) was > 75 µM (inactive) and the GI50 (RPMI-8226) was > 75 µM (inactive). For the same compound, the GI50 (HCC 2998) was > 75 µM (inactive), the GI50 (HOP-62) was > 75 µM (inactive) and the GI50 (UACC-257) was > 75 µM (inactive). The GI50 (HL-60) was > 7.5 µM (inactive), the GI50 (MOLT-4) was > 75 µM (inactive) and the GI50 (SNB-19) was > 75 µM (inactive). For the same compound, the GI50 (K562) was > 75 µM (inactive), the GI50 (LXFL 529) was > 75 µM (inactive) and the GI50 (UO-31) was 51.3 µM (inactive). For the same compound, the GI50 (M14) was > 75 µM (inactive), the GI50 (DMS-273) was > 75 µM (inactive) and the GI50 (M19-MEL) was > 75 µM (inactive). For the same compound, the GI50 (COLO 205) was > 75 µM (inactive), the GI50 (EKVX) was > 75 µM (inactive) and the GI50 (CCRF-CEM) was > 75 µM (inactive). For the same compound, the GI50 (SR) was > 75 µM (inactive), the GI50 (NCI-H460) was > 75 µM (inactive) and the GI50 (SW-620) was > 75 µM (inactive). For the same compound, the GI50 (UACC-62) was > 75 µM (inactive), the GI50 (OVCAR-3) was > 75 µM (inactive) and the GI50 (SK-OV-3) was > 75 µM (inactive). The GI50 (NCI-H522) was > 75 µM (inactive), the GI50 (SK-MEL-28) was > 75 µM (inactive) and the GI50 (SF-268) was > 75 µM (inactive). For the same compound, the GI50 (OVCAR-8) was > 75 µM (inactive), the GI50 (KM-20L2) was > 75 µM (inactive) and the GI50 (HCT-15) was > 75 µM. The GI50 (DLD-1) was > 75 µM (inactive), the GI50 (SF-539) was > 75 µM (inactive) and the GI50 (ACHN) was > 75 µM (inactive). For the same compound, the GI50 (SNB-78) was > 75 µM (inactive), the GI50 (A549) was > 75 µM (inactive) and the GI50 (DMS-114) was > 75 µM (inactive). The GI50 (TK-10) was > 75 µM (inactive), the GI50 (LOX IMVI) was > 75 µM (inactive) and the GI50 (HCT-116) was > 75 µM (inactive). The GI50 (Malme-3M) was > 75 µM (inactive), the GI50 (786-0) was > 75 µM (inactive) and the GI50 (SNB-75) was 50.5 µM (inactive). For the same compound, the GI50 (NCI-H23) was > 75 µM (inactive), the GI50 (SF-295) was > 75 µM (inactive) and the GI50 (SN12C) was > 75 µM (inactive). The GI50 (RXF 393) was > 75 µM (inactive) and the GI50 (U-251) was > 75 µM (inactive).
C=CC[P@]1(=O)O[C@H](c2ccccc2)[C@H](C)N1C was tested, and the GI50 (HT-29) was > 100 µM (inactive), the GI50 (KM12) was > 100 µM (inactive) and the GI50 (RPMI-8226) was > 100 µM (inactive). The GI50 (HCC 2998) was > 100 µM (inactive), the GI50 (HL-60) was > 100 µM (inactive) and the GI50 (SK-MEL-5) was > 100 µM (inactive). For the same compound, the GI50 (MOLT-4) was > 100 µM (inactive), the GI50 (SNB-19) was > 100 µM (inactive) and the GI50 (K562) was > 100 µM (inactive). The GI50 (LXFL 529) was > 100 µM (inactive), the GI50 (NCI-H226) was > 100 µM (inactive) and the GI50 (UO-31) was > 100 µM (inactive). For the same compound, the GI50 (M14) was > 100 µM (inactive), the GI50 (DMS-273) was > 100 µM (inactive) and the GI50 (M19-MEL) was > 100 µM (inactive). The GI50 (EKVX) was > 100 µM (inactive), the GI50 (CCRF-CEM) was > 100 µM (inactive) and the GI50 (SR) was > 100 µM (inactive). The GI50 (NCI-H460) was > 100 µM (inactive), the GI50 (SW-620) was > 100 µM (inactive) and the GI50 (UACC-62) was > 100 µM (inactive). For the same compound, the GI50 (OVCAR-3) was > 100 µM (inactive), the GI50 (SK-OV-3) was > 100 µM (inactive) and the GI50 (SK-MEL-28) was > 100 µM (inactive). For the same compound, the GI50 (SF-268) was > 100 µM (inactive), the GI50 (OVCAR-8) was > 100 µM (inactive) and the GI50 (HCT-15) was > 100 µM. For the same compound, the GI50 (DLD-1) was > 100 µM (inactive), the GI50 (SF-539) was > 100 µM (inactive) and the GI50 (ACHN) was > 100 µM (inactive). For the same compound, the GI50 (SNB-78) was > 100 µM (inactive), the GI50 (A549) was > 100 µM (inactive) and the GI50 (DMS-114) was > 100 µM (inactive). The GI50 (HOP-18) was 79.1 µM (inactive), the GI50 (TK-10) was > 100 µM (inactive) and the GI50 (LOX IMVI) was > 100 µM (inactive). The GI50 (Malme-3M) was > 100 µM (inactive), the GI50 (786-0) was > 100 µM (inactive) and the GI50 (SNB-75) was > 100 µM (inactive). For the same compound, the GI50 (NCI-H23) was > 100 µM (inactive), the GI50 (A498) was > 100 µM (inactive) and the GI50 (SF-295) was > 100 µM (inactive). The GI50 (OVCAR-5) was > 100 µM (inactive), the GI50 (OVCAR-4) was > 100 µM (inactive) and the GI50 (IGROV-1) was > 100 µM (inactive). The GI50 (SN12C) was > 100 µM (inactive), the GI50 (RXF 393) was > 100 µM (inactive) and the GI50 (U-251) was > 100 µM (inactive).
O=C(O)CC/C(=N\Nc1nsc2ccccc12)c1ccccc1 was tested, and the GI50 (HT-29) was 34.4 µM (inactive), the GI50 (KM12) was > 100 µM (inactive) and the GI50 (RPMI-8226) was 18.5 µM (inactive). The GI50 (HCC 2998) was 30.5 µM (inactive), the GI50 (HOP-62) was 97.5 µM (inactive) and the GI50 (UACC-257) was 57.3 µM (inactive). For the same compound, the GI50 (HL-60) was 25.4 µM (inactive), the GI50 (SK-MEL-5) was 79.6 µM (inactive) and the GI50 (MOLT-4) was 23.4 µM (inactive). The GI50 (SNB-19) was > 100 µM (inactive), the GI50 (K562) was 26.8 µM (inactive) and the GI50 (LXFL 529) was 42.5 µM (inactive). For the same compound, the GI50 (UO-31) was > 100 µM (inactive), the GI50 (HOP-92) was 51.3 µM (inactive) and the GI50 (M14) was 54.5 µM (inactive). The GI50 (DMS-273) was 24.7 µM (inactive), the GI50 (M19-MEL) was 72.3 µM (inactive) and the GI50 (COLO 205) was > 100 µM (inactive). For the same compound, the GI50 (EKVX) was > 100 µM (inactive), the GI50 (CCRF-CEM) was 26.6 µM (inactive) and the GI50 (SR) was 24.9 µM (inactive). For the same compound, the GI50 (SK-MEL-2) was > 100 µM (inactive), the GI50 (NCI-H460) was 33.6 µM (inactive) and the GI50 (SW-620) was 52.4 µM (inactive). The GI50 (UACC-62) was 58.5 µM (inactive), the GI50 (OVCAR-3) was 26.5 µM (inactive) and the GI50 (SK-MEL-28) was 34.6 µM (inactive). For the same compound, the GI50 (SF-268) was 39.4 µM (inactive), the GI50 (OVCAR-8) was 66.7 µM (inactive) and the GI50 (KM-20L2) was 78.7 µM (inactive). The GI50 (HCT-15) was 36 µM, the GI50 (SF-539) was > 100 µM (inactive) and the GI50 (ACHN) was 70.6 µM (inactive). For the same compound, the GI50 (SNB-78) was 47.8 µM (inactive), the GI50 (A549) was > 100 µM (inactive) and the GI50 (DMS-114) was 25.5 µM (inactive). For the same compound, the GI50 (HOP-18) was > 100 µM (inactive), the GI50 (TK-10) was > 100 µM (inactive) and the GI50 (LOX IMVI) was 29.5 µM (inactive). The GI50 (HCT-116) was 41.6 µM (inactive), the GI50 (SNB-75) was 0.82 µM (active) and the GI50 (NCI-H23) was 27.2 µM (inactive). The GI50 (OVCAR-5) was > 100 µM (inactive), the GI50 (OVCAR-4) was 58.5 µM (inactive) and the GI50 (IGROV-1) was > 100 µM (inactive). The GI50 (SN12C) was 38.1 µM (inactive), the GI50 (RXF 393) was 39.1 µM (inactive) and the GI50 (U-251) was 39.1 µM (inactive).
For COc1cc(CNc2ccc(SC)cc2)cc(OC)c1OC, the GI50 (HT-29) was 4.39 µM (inactive), the GI50 (RPMI-8226) was 11.9 µM (inactive) and the GI50 (HL-60) was 4.84 µM (inactive). The GI50 (MOLT-4) was 4.85 µM (inactive), the GI50 (LXFL 529) was 18.4 µM (inactive) and the GI50 (UO-31) was 20 µM (inactive). The GI50 (M14) was 4.38 µM (inactive), the GI50 (Hs-578T) was 12.4 µM (inactive) and the GI50 (BT-549) was 3.18 µM (inactive). For the same compound, the GI50 (DMS-273) was 3.08 µM (inactive), the GI50 (NCI/ADR-RES) was 3.78 µM (inactive) and the GI50 (COLO 205) was 4.48 µM (inactive). The GI50 (EKVX) was 49.7 µM (inactive), the GI50 (CCRF-CEM) was 12.2 µM (inactive) and the GI50 (PC-3) was 12.4 µM (inactive). The GI50 (SK-MEL-2) was 4.88 µM (inactive), the GI50 (NCI-H460) was 7.1 µM (inactive) and the GI50 (SW-620) was 4.02 µM (inactive). The GI50 (OVCAR-3) was 7.26 µM (inactive), the GI50 (NCI-H522) was 4.92 µM (inactive) and the GI50 (KM-20L2) was 4.3 µM (inactive). The GI50 (HCT-15) was 4.08 µM, the GI50 (SNB-78) was 48.3 µM (inactive) and the GI50 (MCF7) was 5.69 µM (inactive). The GI50 (A549) was 10 µM (inactive), the GI50 (DMS-114) was 5.15 µM (inactive) and the GI50 (HOP-18) was 33.5 µM (inactive). For the same compound, the GI50 (LOX IMVI) was 9.42 µM (inactive), the GI50 (HCT-116) was 6.93 µM (inactive) and the GI50 (Malme-3M) was 11 µM (inactive). The GI50 (786-0) was 14.6 µM (inactive), the GI50 (A498) was 22 µM (inactive) and the GI50 (OVCAR-5) was 32.1 µM (inactive). The GI50 (OVCAR-4) was 46.9 µM (inactive).
